Source: ChEMBL document CHEMBL3244165, “Improved synthesis and in vitro antiviral activities of 5-cyanouridine and 5-cyano-2'-deoxyuridine” (J Med Chem, 1977)

Tested on: Vaccinia virus
Test: Antiviral activity against Vaccinia virus infected in primary rabbit kidney cells assessed as inhibition of virus-induced cytopathogenicity
Format: functional, Orthopoxvirus vaccinia

| Compound | ID50 |
| --- | --- |
| O=c1[nH]c(=O)n([C@H]2C[C@H](O)[C@@H](CO)O2)cc1Cl [CHLORODEOXYURIDINE] | 7.6 ×10⁻⁷ M |
| N#Cc1cn([C@@H]2O[C@H](CO)[C@@H](O)[C@H]2O)c(=O)[nH]c1=O | >3.7 ×10⁻⁴ M |
| O=c1[nH]c(=O)n([C@H]2C[C@H](O)[C@@H](CO)O2)cc1I [IDOXURIDINE] | 1.1 ×10⁻⁶ M |
| O=c1[nH]c(=O)n([C@H]2C[C@H](O)[C@@H](CO)O2)cc1Br [BROXURIDINE] | 3.2 ×10⁻⁷ M |
| O=c1[nH]c(=O)n([C@H]2C[C@H](O)[C@@H](CO)O2)cc1F [FLOXURIDINE] | 4 ×10⁻⁷ M |
| O=c1[nH]c(=O)n([C@H]2C[C@H](O)[C@@H](CO)O2)cc1C(F)(F)F [TRIFLURIDINE] | 3.3 ×10⁻⁷ M |
| Nc1ncnc2c1ncn2[C@@H]1O[C@H](CO)[C@@H](O)[C@@H]1O [VIDARABINE] | 1.4 ×10⁻⁶ M |
| N#Cc1cn([C@H]2C[C@H](O)[C@@H](CO)O2)c(=O)[nH]c1=O | 1.6 ×10⁻⁵ M |
